According to ChEMBL document CHEMBL1201862, “PubChem BioAssay data set” (2004):
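Assay format: 96-well plates, 48-hour exposure. GI50 = concentration required for 50% inhibition of growth.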 The source made the active and inactive calls. No stated cut-off is given here; in the data, active = GI50 up to about 1.1 µM and inactive = higher.

Legend:
Assay in all cases: DTP human tumour cell line panel, 48 h
[1] = test system: IGROV-1
[2] = test system: MDA-MB-231
[3] = test system: COLO 205
[4] = test system: ACHN
[5] = test system: HCC 2998
[6] = test system: SF-268
[7] = test system: T47D
[8] = test system: 786-0
[9] = test system: NCI-H460
[10] = test system: NCI/ADR-RES
[11] = test system: Malme-3M
[12] = test system: Hs-578T
[13] = test system: MOLT-4
[14] = test system: SNB-19
[15] = test system: NCI-H23
[16] = test system: OVCAR-4
[17] = test system: TK-10
[18] = test system: MDA-MB-435
[19] = test system: OVCAR-5
[20] = test system: K562

Measured: GI50

CCSc1n/c(=C\c2ccc(N(C)C)cc2)c2nnnn12
inactive: [1] > 100 µM | [2] > 100 µM | [3] > 100 µM | [4] > 100 µM | [5] > 100 µM | [6] > 100 µM | [7] > 100 µM | [8] > 100 µM | [9] > 100 µM | [10] > 100 µM | [11] > 100 µM | [12] > 100 µM | [13] > 100 µM | [14] > 100 µM | [15] > 100 µM | [16] > 100 µM | [17] > 100 µM | [18] > 100 µM | [19] > 100 µM

C[C@]12CCC(=O)O[C@H]1CCCCO2
inactive: [1] > 100 µM | [2] > 100 µM | [3] > 100 µM | [5] > 100 µM | [6] > 100 µM | [7] > 100 µM | [8] > 100 µM | [9] > 100 µM | [10] > 100 µM | [11] > 100 µM | [12] > 100 µM | [13] > 100 µM | [20] > 100 µM | [17] > 100 µM | [18] > 100 µM | [19] > 100 µM

COc1cc(OC)c(OC)cc1/C=C/c1ccc2ccccc2n1
inactive: [1] > 10 µM | [2] > 10 µM | [3] > 10 µM | [4] > 10 µM | [5] > 10 µM | [6] > 10 µM | [7] 6.97 µM | [8] > 10 µM | [10] 7.6 µM | [11] > 10 µM | [12] 3.44 µM | [13] 3.78 µM | [15] 2.89 µM | [20] 5.33 µM | [16] > 10 µM | [17] > 10 µM | [18] 7.23 µM | [19] > 10 µM

N#CC(c1ccccc1)N(CCc1ccccc1)C(=O)Oc1ccccc1 (centres undefined)
inactive: [1] > 100 µM | [2] > 100 µM | [3] > 100 µM | [4] > 100 µM | [5] > 100 µM | [6] > 100 µM | [7] > 100 µM | [8] > 100 µM | [10] > 100 µM | [11] > 100 µM | [12] 44.8 µM | [13] > 100 µM | [14] 53 µM | [15] > 100 µM | [20] > 100 µM | [16] > 100 µM | [17] > 100 µM | [18] > 100 µM | [19] > 100 µM

O=C1CN(c2ccccc2)Cc2nc(Cl)ccc2N1
inactive: [1] > 100 µM | [2] > 100 µM | [3] > 100 µM | [4] > 100 µM | [5] > 100 µM | [6] > 100 µM | [7] > 100 µM | [8] > 100 µM | [9] > 100 µM | [10] 94 µM | [11] 58.1 µM | [12] 61.9 µM | [13] > 100 µM | [14] > 100 µM | [20] > 100 µM | [16] > 100 µM | [17] > 100 µM | [18] > 100 µM | [19] > 100 µM

CCOC(=O)/C(=C\n1c(=O)sc2ccccc21)C(=O)c1ccccc1
inactive: [1] 20 µM | [2] 63 µM | [3] > 100 µM | [4] > 100 µM | [5] > 100 µM | [6] > 100 µM | [7] 22.4 µM | [8] > 100 µM | [9] > 100 µM | [10] > 100 µM | [11] > 100 µM | [12] 39.6 µM | [13] > 100 µM | [15] > 100 µM | [20] 44.3 µM | [16] > 100 µM | [18] > 100 µM | [19] > 100 µM

COc1ccc(-c2[nH]c(-c3ccc(OC)cc3)c(-c3ccccn3)c2-c2ccccn2)cc1
inactive: [1] 71.8 µM | [2] 89.3 µM | [3] 26 µM | [4] 74 µM | [5] 13.6 µM | [6] > 100 µM | [7] 31.5 µM | [8] > 100 µM | [9] 31.8 µM | [10] 39.5 µM | [11] 21.1 µM | [12] > 100 µM | [13] 34.7 µM | [14] 68.7 µM | [15] 42.5 µM | [20] 25.5 µM | [17] > 100 µM | [18] 21.7 µM | [19] > 100 µM

Cc1ccc(NC(=O)CC(=O)N2N=C(N(c3ccccc3)c3ccccc3)CC2c2ccccc2)cc1 (centres undefined)
inactive: [1] > 100 µM | [2] > 100 µM | [3] > 100 µM | [4] > 100 µM | [5] > 100 µM | [6] 75.7 µM | [7] > 100 µM | [8] > 100 µM | [9] > 100 µM | [10] > 100 µM | [12] 31.6 µM | [13] > 100 µM | [14] > 100 µM | [15] > 100 µM | [20] > 100 µM | [16] > 100 µM | [17] > 100 µM | [18] > 100 µM | [19] > 100 µM

COc1ccc2oc(OC)c(CC=C(C)C)c(=O)c2c1C
inactive: [1] > 100 µM | [2] > 100 µM | [3] > 100 µM | [4] > 100 µM | [5] > 100 µM | [6] > 100 µM | [7] > 100 µM | [8] > 100 µM | [9] > 100 µM | [10] > 100 µM | [11] > 100 µM | [12] > 100 µM | [13] > 100 µM | [14] > 100 µM | [15] > 100 µM | [20] > 100 µM | [17] > 100 µM | [18] > 100 µM | [19] > 100 µM

Cc1ccc(-c2cc[n+]3c(n2)oc2ccccc23)cc1
inactive: [1] 26.8 µM | [2] 75.2 µM | [3] 12.4 µM | [4] 28.6 µM | [5] 30.5 µM | [6] 43.9 µM | [7] 16.3 µM | [8] 14.7 µM | [9] 72.8 µM | [10] > 100 µM | [11] 13.2 µM | [12] 27.8 µM | [13] 10.8 µM | [14] 69.8 µM | [15] 39.9 µM | [20] 4.84 µM | [16] 16 µM | [18] 24.7 µM | [19] 39.7 µM

C=CCOc1ccc(C(=N/NC(=O)c2ccccc2)/N=N/c2ccc([N+](=O)[O-])cc2)cc1OC
inactive: [1] > 100 µM | [2] > 100 µM | [3] > 100 µM | [4] > 100 µM | [5] 74.1 µM | [6] > 100 µM | [7] 29 µM | [8] > 100 µM | [9] 64.1 µM | [10] > 100 µM | [11] > 100 µM | [12] > 100 µM | [13] 92.5 µM | [14] > 100 µM | [15] > 100 µM | [16] > 100 µM | [17] > 100 µM | [18] > 100 µM | [19] > 100 µM

Cc1cccc(C)c1Nc1nc(C)c(C(=O)CC(=O)C(=O)Nc2c(C(C)C)cccc2C(C)C)s1
inactive: [1] > 100 µM | [2] > 100 µM | [3] > 100 µM | [4] > 100 µM | [5] > 100 µM | [6] > 100 µM | [7] > 100 µM | [8] > 100 µM | [9] > 100 µM | [10] 73.8 µM | [12] > 100 µM | [13] 72.9 µM | [14] > 100 µM | [15] > 100 µM | [20] > 100 µM | [16] > 100 µM | [17] > 100 µM | [18] > 100 µM | [19] > 100 µM

CC(C)=CCN=C(N)N
inactive: [1] > 100 µM | [2] > 100 µM | [3] > 100 µM | [4] > 100 µM | [5] > 100 µM | [6] > 100 µM | [7] > 100 µM | [8] > 100 µM | [9] > 100 µM | [10] > 100 µM | [11] > 100 µM | [12] > 100 µM | [13] 51.2 µM | [14] > 100 µM | [15] > 100 µM | [16] > 100 µM | [17] > 100 µM | [18] > 100 µM

CC1(C)CC[C@]2(C(=O)O)CC[C@]3(C)C(=CC[C@@H]4[C@@]5(C)CC[C@H](OC6OC(CO)C(O)C(O)C6O)C(C)(C)[C@@H]5CC[C@]43C)[C@@H]2C1 (some centres undefined)
inactive: [1] 1.58 µM | [2] 1.66 µM | [3] 1.8 µM | [4] 1.66 µM | [5] 1.59 µM | [6] 1.83 µM | [7] 1.82 µM | [8] 1.77 µM | [9] 3.61 µM | [10] 7.89 µM | [11] 1.67 µM | [12] 2.26 µM | [13] 1.85 µM | [14] 1.52 µM | [15] 1.99 µM | [20] 1.42 µM | [16] 1.61 µM | [18] 1.87 µM | [19] 1.9 µM

CC(C)=CCC/C(=C\CC/C(=C\CCc1ccoc1)C(=O)O)C(=O)O
inactive: [1] > 100 µM | [2] > 100 µM | [3] > 100 µM | [4] > 100 µM | [5] > 100 µM | [6] 92.3 µM | [7] > 100 µM | [8] > 100 µM | [10] > 100 µM | [11] > 100 µM | [12] > 100 µM | [13] > 100 µM | [14] > 100 µM | [15] > 100 µM | [20] > 100 µM | [16] > 100 µM | [17] > 100 µM | [18] > 100 µM | [19] > 100 µM
